Here are results for five compounds from patent publication US8455244B2, “Co-crystallization of ERR-α with a ligand that forms a reversible covalent bond” (Janssen Pharmaceutica N.V., priority 2009, dated 2013).

Experiment [1] deals with T1, ERR-α (Homo sapiens, UniProt P11474).
T1 sequence (P11474 with tags, fused parts or gaps): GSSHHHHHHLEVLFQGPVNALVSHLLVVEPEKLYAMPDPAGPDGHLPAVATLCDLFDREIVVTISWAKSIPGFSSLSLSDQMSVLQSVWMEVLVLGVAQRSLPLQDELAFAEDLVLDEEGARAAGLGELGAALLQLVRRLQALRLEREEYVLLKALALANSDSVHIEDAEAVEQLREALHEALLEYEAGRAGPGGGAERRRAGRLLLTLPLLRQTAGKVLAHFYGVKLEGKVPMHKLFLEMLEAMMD
Put plainly: LC/MS dissociation rate with 20-fold excess Compound 2 as competing ligand. It counts as binding. The following applies: ligand 1 μM, ERR-α 0.5 μM, competing ligand 20 μM, 37° C., assumed first order. Further details: made in house; host or cells: Spodoptera frugiperda (Sf9) insect cells, baculovirus. The text has this: The progress of the reaction was also expressed as a fraction of the area observed for the complex of ERR-α and the competing ligand over the sum of total area for the complex of ERR-α with the ligand and the complex of ERR-α with the competing ligand.
where k is the apparent rate constant.

Experiment [2] concerns the target T1, ERR-α. Put plainly: biochemical. The following applies: pH 7.9, read-out: ka.
Description: To monitor the kinetics of association and dissociation for ligands that formed a complex with ERR-α by forming a covalent bond to Cys325 of ERR-α, LC/MS detection was employed. LC analysis was performed on an Agilent 1100 LC system that was in line with an Agilent MSD TOF for mass detection. Software provided by the vendor was used to deconvolute the ESI positive ion quadrupole time-of-flight spectra. To measure association rates, typically a 1 μM ERR-α solution was mixed with an equal volume of a 2 μM ligand solution. […]
For the apo form of ERR-α, a mass of 27042 was detected, corresponding to an amino acid sequence where the initiator methionine is cleaved followed by N-terminal acetylation.
Association and dissociation rates for ligands were determined by fitting fractional values obtained for the progress of the reaction as a function of time using a single exponential equation progress of reaction=e^−kt
where k is the apparent rate constant. For the dissociation experiments, the reaction is assumed to be first order and dissociation rates, kd, are expressed as s^−1. For the association rates, k^a, the reaction is assumed to be second order and the rates are expressed as M^−1s^−1 by dividing the apparent rate constants by the concentration of the protein determined by experimental conditions (Table 4).
Experiment [3] has as its target ERR-α (Homo sapiens, UniProt P11474). In words: biochemical. The method, then: For TR-FRET measurements, the reaction was buffered in 25 mM Tris pH 8, 2.5 mM Hepes, 20 mM KCl, 1 mM DTT, and 0.05 mg/mL BSA (-lipids). […] Reactions were allowed to reach equilibrium at 25° C. for 4-18 hours before collecting data on the Analyst from LJL Biosystems (Molecular Devices Sunnyvale, Calif.).
Target sequence in this assay (P11474 with tags, fused parts or gaps limits assumed): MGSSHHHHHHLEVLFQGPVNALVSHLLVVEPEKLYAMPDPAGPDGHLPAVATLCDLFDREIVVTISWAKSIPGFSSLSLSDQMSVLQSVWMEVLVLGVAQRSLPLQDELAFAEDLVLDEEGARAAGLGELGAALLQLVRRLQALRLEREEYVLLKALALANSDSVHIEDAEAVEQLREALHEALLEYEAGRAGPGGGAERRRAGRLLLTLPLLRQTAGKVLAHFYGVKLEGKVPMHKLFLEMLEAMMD

Regarding `CN1CCN(C2=NC(=O)/C(=C/c3ccc(Oc4ccc(C#N)cc4C(F)(F)F)c(F)c3)S2)CC1` [Compound 4], the kd in experiment [1] turned out to be 2.19e-05 s⁻¹.

Regarding `COc1cc(/C=C2\SC(=O)NC2=O)ccc1Oc1ccc(C#N)cc1C(F)(F)F` [Compound 1], the kd in experiment [1] worked out at 1.1e-05 s⁻¹. Besides, in experiment [2], the kon was 6600 M⁻¹ s⁻¹.

In experiment [1], `COc1cc(/C=C2\SC(N)=NC2=O)ccc1Oc1ccc(C#N)cc1C(F)(F)F` [Compound 5] gave a kd of 2.05e-05 s⁻¹.

For the compound `COC(=O)c1ccc(Oc2ccc(/C=C3\SC(=O)NC3=O)cc2OC)c(C(F)(F)F)c1` [Compound 2], it took 11 nM to reach a half-maximal effect in experiment [3] (EC50).

The compound `COc1cc(/C=C2\SC(N3CCN(C)CC3)=NC2=O)ccc1Oc1ccc(C#N)cc1C(F)(F)F` [Compound 3] registered a kd in experiment [1] of 1.53e-05 s⁻¹.

In general, EC50 refers to the concentration that produces a half-maximal response. Lower therefore signals an effect from little substance.
